In patent US5356907A, “1-cycloalkylpyridones as analgesics” (priority 1989, dated 1994):

Assays:
cardiac rhythm disorders = assay: Anti-arythmic action in the rat (aconitine perfusion); type: in vivo; details: intravenous, 5 minutes before aconitine 10 micrograms/mn, anaesthetised male rat
Method: 2) Anti-arythmic action in the rat
Male rate weighing 300-350 g anaesthetised by interperitonal route using 1.20 g/kg of urethane are tracheotomized and subjected to artificial respiration (40-50 insufflations of 3 ml/minute).
needles are implanted subcutaneously so as to record the rats' electrocardiogram on the DII derivation signal.
The test products are administered by intravenous route. Five minutes after administration of the product, the jugular vein is perfused with aconitine at the rate of 10 micrograms/mn and the time taken for the appearance of cardiac rhythm disorders is noted.
The results are expressed as a percentage of the increase in the time taken for cardiac rhythm disorders to appear relative to the controls and according to the dose of the test product.

opiated K Receptor = target: T1, opiated K Receptor (Cavia porcellus, UniProt P41144); assay: Bonding to the opiated K Receptor in Vitro; type: binding; details: displacement of 1 nM 3H-ethylketocyclazocin, guinea pig brain membranes, Tris pH 7.7, 25° C., 40 minutes
T1 construct: Membrane samples preserved at -30° C; (optionally for approximately 30 days) are used and prepared from guinea pig brains; from tissue; host or cells: guinea pig brain membranes
Method: 1) Bonding to the opiated K Receptor in Vitro
Membrane samples preserved at -30° C. (optionally for approximately 30 days) are used and prepared from guinea pig brains.
These samples are put in suspension in Tris pH 7.7 buffer. Fractions of 2 cm^3 are distributed in hemolysis tubes and 1 nM of 9^3 H-ethylketocyclazocin and the product to be studied are added. The product is first tested at 5×10^-6 M (in triplicate). When the test product displaces more than 50% of the radioactivity linked specifically to the receptor, it is tested again according to a range of 7 doses so as to determine the dose that inhibits 50% of the radioactivity linked specifically to the receptor. Thus the 50% inhibiting concentration is determined.
The non-specific bond is determined by the addition of known product under the name U-50488 H (Lahti et al. 1982, Life Sci. 31, 2257) at 10^-5 M (in triplicate). After incubating at 25° C. for 40 minutes, returning to the water bath at 0° C. for 5 minutes, filtering under vacuum, rinsing with Tris pH 7.7 buffer, the radioactivity is counted in the presence of Trition scintillator.
The result is expressed directly as 50% inhibiting concentration (IC50), namely as the concentration of studied product expressed in nM, necessary to displace 50% of the radioactivity specifically fixed on the studied receptor.

T1 sequence (P41144 whole entry): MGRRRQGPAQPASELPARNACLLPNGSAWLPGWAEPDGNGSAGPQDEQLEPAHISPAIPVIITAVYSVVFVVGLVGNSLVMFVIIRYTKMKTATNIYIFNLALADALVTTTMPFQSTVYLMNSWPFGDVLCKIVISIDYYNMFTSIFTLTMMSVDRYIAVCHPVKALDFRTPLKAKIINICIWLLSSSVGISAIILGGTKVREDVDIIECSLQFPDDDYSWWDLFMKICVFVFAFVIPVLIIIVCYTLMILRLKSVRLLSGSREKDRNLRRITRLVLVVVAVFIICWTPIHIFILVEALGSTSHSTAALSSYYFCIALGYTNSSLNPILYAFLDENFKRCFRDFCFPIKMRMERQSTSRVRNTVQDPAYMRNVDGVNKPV

Row | Compound | Percentage increase in time (taken for cardiac rhythm disorders to appear relative to the controls) (cardiac rhythm disorders; dose 2.5 mg/kg, 2.5 mg/kg) [%] | Percentage increase in time (taken for cardiac rhythm disorders to appear relative to the controls) (cardiac rhythm disorders; dose 5 mg/kg, 5 mg/kg) [%] | IC50 (opiated K Receptor) [nM] | Percentage increase in time (taken for cardiac rhythm disorders to appear relative to the controls) (cardiac rhythm disorders; dose 2.5 mg/kg) [%] | Percentage increase in time (taken for cardiac rhythm disorders to appear relative to the controls) (cardiac rhythm disorders; dose 5 mg/kg) [%]
1 | O=C1C(c2ccc(Cl)c(Cl)c2)CCCN1[C@@H]1CCCC[C@H]1N1CCCC1 (mixture of isomers) [Example 5, [Trans, (±)]-3-(3,4-dichlorophenyl)-1-[2-(1-pyrrolidinyl)-cyclohexyl]-2-piperidinone] | 26 | 33 | – | – | –
2 | O=C1C(c2ccc(Cl)c(Cl)c2)CCCN1[C@@H]1CCCC[C@H]1N1CCCC1 (mixture of isomers) [Example 4, [Trans, (±)]-3-(3,4-dichlorophenyl)-1-[2-(1-pyrrolidinyl)-cyclohexyl]-2piperidinone] | 23 | 48 | 22 | – | –
3 | O=C1C(c2ccc(Cl)c(Cl)c2)=CCCN1[C@@H]1CCCC[C@H]1N1CCCC1 (relative stereo) [Example 3, [Trans, (±)]-3-(3,4-dichlorophenyl)-5,6-dihydro-1-[2-(1-pyrrolidinyl)cyclohexyl)-2-(1H)-pyridinone] | – | – | – | 52 | 55
4 | COc1ccc(C2C(=O)CCN([C@@H]3CCCC[C@H]3N3CCCC3)C2=O)cc1OC (mixture of isomers) [Example 7, [Trans,(±)]-3-(3,4-dimethoxy-phenyl)-1-[2-(1-pyrrolidinyl)-cyclohexyl]-2,4-piperidinedione] | – | – | 0.2 | – | –
5 | COc1ccc(C2=CCCN([C@@H]3CCCC[C@H]3N3CCCC3)C2=O)cc1OC (relative stereo) [Example 8, [Trans-(±)]-5,6-dihydro-3-(3,4-dimethoxyphenyl)-1-[2(1-pyrrolidinyl)-cyclohexyl]-2-[1H)-pyridinone] | – | – | 9 | – | –
